Patent US20240374487A1, “ANTI-AGING AGENT, COSMETIC PRODUCT, WET TOWEL, AND HYGIENE PRODUCT” (VB JAPAN TECHNOLOGY CO., LTD., priority 2021, published 2024)

How the values were obtained:
[1] = tested on: AGE receptor (FEEL-1, FEEL-2, CD-36, AGE-R1, AGE-R2, AGE-R3 and RAGE); assay: mRNA levels of AGE receptors by qRT-PCR in normal human dermal fibroblasts; type: cell-based; conditions: VB alone, no AGE, 37° C. 4 hours, compared with untreated group
Experimental: (§1) Normal human dermal fibroblasts (NHDF), juvenile foreskin (C-12300, PromoCell) were cultured in a dedicated medium, Fibroblast Growth Medium (C-23010, PromoCell) at 37° C. in a 5% CO2 incubator.
(§2) First, as a co-existence group of VB and AGE, normal human dermal fibroblasts were treated with AGE (100 μg/mL), and the above VB2 (concentration after dilution: 115 μg/ml) and VB3 (concentration after dilution: 1000 μg/mL) diluted to an accurate 1/1000 amount were each added and retained at 37° C. for 4 hours. […]
(§3) Then, total RNA was extracted from the cells using Trizol reagent (Ambion), and mRNA levels of AGE receptor (FEEL-1, FEEL-2, CD-36, AGE-R1, AGE-R2, AGE-R3 and RAGE) and heat shock protein (Hsp104, gp96, Hsp90, Hsp70, Hsp60, and Hsp32) were measured by qRT-PCR (one-step quantitative reverse transcription-polymerase chain reaction) method. […]
(§4) The qRT-PCR method used for the measurement of AGE receptor, heat shock protein, aquaporin, hyaluronic acid, and Elastin will be described. In the qRT-PCR method, 500 ng of the obtained total RNA was used as a template for PCR, and one step RT-PCR capable of performing CDNA synthesis by a reverse transcription reaction (Reverse Transcriptase; RT reaction) and quantitative PCR in one test tube was performed using Luna Universal One-Step qRT-PCR Kit. […]

[2] = tested on: FEEL-1; assay: FEEL-1 mRNA level by qRT-PCR in AGE-treated fibroblasts; type: cell-based, human; conditions: co-existence with AGE 100 μg/mL, 4 hours, compared with AGE single stimulation group
Experimental: as §1, §2, §3, §4

[3] = tested on: FEEL-2; assay: FEEL-2 mRNA level by qRT-PCR in AGE-treated fibroblasts; type: cell-based, human; conditions: co-existence with AGE 100 μg/mL, 4 hours, compared with AGE single stimulation group
Experimental: as §1, §2, §3, §4

[4] = tested on: RAGE; assay: RAGE mRNA level by qRT-PCR in AGE-treated fibroblasts; type: cell-based, human; conditions: co-existence with AGE 100 μg/mL, 4 hours, compared with AGE single stimulation group
Experimental: as §1, §2, §3, §4

[5] = tested on: heat shock protein (Hsp104, gp96, Hsp90, Hsp70, Hsp60, and Hsp32); assay: mRNA levels of heat shock proteins by qRT-PCR in fibroblasts; type: cell-based, human; conditions: 4 hours
Experimental: as §1
First, as a co-existence group of VB and AGE, normal human dermal fibroblasts were treated with AGE (100 μg/mL), and the above VB2 (concentration after dilution: 115 μg/ml) and VB3 (concentration after dilution: 1000 μg/mL) diluted to an accurate 1/1000 amount were each added and retained at 37° C. for 4 hours.
In addition, as the VB single stimulation group, normal human dermal fibroblasts were not treated with AGE, and the above VB2 and VB3 diluted to an accurate 1/1000 amount were each added and held at 37° C. for 4 hours. Furthermore, as the AGE single stimulation group, normal human dermal fibroblasts were treated with AGE and kept at 37° C. for 4 hours without addition of VB2 or VB3. In addition, as an untreated group, normal human dermal fibroblasts were not treated with AGE, and were kept at 37° C. for 4 hours without adding VB2 or VB3.
Then, total RNA was extracted from the cells using Trizol reagent (Ambion), and mRNA levels of AGE receptor (FEEL-1, FEEL-2, CD-36, AGE-R1, AGE-R2, AGE-R3 and RAGE) and heat shock protein (Hsp104, gp96, Hsp90, Hsp70, Hsp60, and Hsp32) were measured by qRT-PCR (one-step quantitative reverse transcription-polymerase chain reaction) method.
The measurement results for AGE receptor are shown in FIG. 1, and the measurement results for heat shock protein are shown in FIG. 2. In FIG. 1 and FIG. 2, for the co-existence group of AGE and VB, samples to which VB2 and VB3 were added are indicated as VB2(+)AGE and VB3(+)AGE, respectively, and these values were shown in comparison with the AGE single stimulation group. In addition, for the VB single stimulation group, samples to which VB2 and VB3 were added were indicated as VB2 alone and VB3 alone, respectively, and these values were shown in comparison with the untreated group.
(§5) The qRT-PCR method used for the measurement of AGE receptor, heat shock protein, aquaporin, hyaluronic acid, and Elastin will be described. In the qRT-PCR method, 500 ng of the obtained total RNA was used as a template for PCR, and one step RT-PCR capable of performing CDNA synthesis by a reverse transcription reaction (Reverse Transcriptase; RT reaction) and quantitative PCR in one test tube was performed using Luna Universal One-Step qRT-PCR Kit.
As a PCR device, Thermal Cycler Dice Real Time System II manufactured by Takara was used. […]
(§6) The reaction was performed under the conditions of 1 cycle of 30 seconds at 95° C., and further cycles of 5 seconds at 95° C. and 30 seconds at 60° C. for 50 cycles. A variation in mRNA expression by 4 times or more (2 cycles as PCR reaction) was determined as a significant difference.

[6] = tested on: intracellular ROS; assay: Intracellular ROS against AGE (DCF-DA fluorescence); type: cell-based, human; conditions: AGE 100 μg/mL, 4 hours, FIG. 3
Experimental: as §1
Normal human dermal fibroblasts were treated with AGE (100 μg/mL) and maintained at 37° C. for 4 hours with the addition of VB2 and VB3, respectively. Here, VB2 and VB3 were added at concentrations of 1 μg/mL, 10 μg/mL, 100 μg/mL, and 300 μg/mL, respectively. In FIGS. 3 and 4, which are graphs showing the results, those to which VB2was added were denoted as “VB2-AGE”, and those to which VB3 was added were denoted as “VB3-AGE”.
As Control, measurement was also performed on normal human dermal fibroblasts which were not treated with AGE and were held at 37° C. for 4 hours without addition of VB2 or VB3, and as an AGE single stimulation group, measurement was also performed on normal human dermal fibroblasts which were treated with AGE (100 μg/mL) and were held at 37° C. for 4 hours without addition of VB2 or VB3 (in FIGS. 3 and 4, it is denoted as “AGE”.).
Measurement of intracellular ROS was performed using fluorescence using dichlorofluorescin diacetate (DCF-DA; Invitrogen, Carlsbad, CA, USA). […] The intracellular ROS level was measured at an excitation wavelength of 525 nm using fluorescence intensity using the micro plate reader (SYNERGY/HT, BioTek, Japan).

[7] = tested on: normal human dermal fibroblasts; assay: Cell viability under hydrogen peroxide oxidative stress (Cell counting-8 kit); type: cell-based; conditions: for cell viability, trend: 1-300 μg/mL
Experimental: as §1
(§7) Normal human dermal fibroblasts were cultured for 2 hours in a culture solution to which 0.2 mM hydrogen peroxide was added, then washed off with PBS, and replaced with a normal medium to continue the cultivation. VB2 and VB3 were each added at any timing before or after hydrogen peroxide was added, and co-cultured for 4 hours. Thereafter, the cells or the culture solution were recovered.
In FIG. 5 which is a graph showing the results, a sample obtained by adding VB2 or VB3 after adding hydrogen peroxide was denoted as “H2O2-VB2” and “H2O2-VB3”, respectively, and a sample obtained by adding hydrogen peroxide after adding VB2 or VB3 was denoted as “VB2-H2O2” and “VB3-H2O2”, respectively.
Here, VB2 and VB3 were added at concentrations of 1 μg/mL, 10 μg/mL, 100 μg/mL, and 300 μg/mL, respectively.
The normal human dermal fibroblasts to which neither hydrogen peroxide nor VB2 nor VB3 was added were treated in the same manner as described above, and measured as Control. In addition, a sample to which VB2 or VB3 was not added (in FIG. 5, it is denoted as “H2O2”) was also treated in the same manner as described above, and measurement was performed.
The number of surviving cells in normal human dermal fibroblasts was measured using Cell counting −8 kit (DOJINDO: , Japan).

[8] = tested on: intracellular ROS; assay: Intracellular ROS production against hydrogen peroxide (DCF-DA); type: cell-based, human
Experimental: Measurement of intracellular ROS was performed using fluorescence using dichlorofluorescin diacetate (DCF-DA; Invitrogen, Carlsbad, CA, USA). Specifically, cells were washed with PBS, and then incubated with 10 μM DCF-DA at 37° C. for 20 minutes. The intracellular ROS level was measured at an excitation wavelength of 525 nm using fluorescence intensity using the micro plate reader (SYNERGY/HT, BioTek, Japan).
as §7
According to the procedure described in “Measurement of Cell Viability” above, normal human dermal fibroblasts were treated and cultured (co-culture), and cells or the culture solution was recovered. The concentrations of VB2 and VB3 used and the notation of the samples in FIGS. 6 and 7, which are graphs showing the results, are also similar to the above “Measurement of Cell Viability”.
The measurement of intracellular ROS and the measurement of superoxide (SOD) were performed by the same methods as the methods described in “Measurement of Intracellular Reactive Oxygen (ROS) Production and Superoxide (SOD) against AGE” above, respectively.
FIGS. 6 and 7 show the results of each sample when Control is 100%.

[9] = tested on: SOD; assay: SOD amount against hydrogen peroxide (SOD Assay Kit); type: cell-based, human; conditions: added before and after 0.2 mM hydrogen peroxide, 1-300 μg/mL (H2O2 only 56% of Control)
Experimental: Superoxide (SOD) was measured using SOD Assay Kit (Cayman Chemical, Ann arbor, MI, USA). Cells that had been subjected to various treatments were incubated for 24 hours, and then a Lysis buffer was added, homogenized, and centrifuged. Then, 10 μL of each sample was mixed with 200 μL of xanthine oxidase at room temperature. After 30 minutes, the absorbance at 450 nm was measured.
as §7
According to the procedure described in “Measurement of Cell Viability” above, normal human dermal fibroblasts were treated and cultured (co-culture), and cells or the culture solution was recovered. The concentrations of VB2 and VB3 used and the notation of the samples in FIGS. 6 and 7, which are graphs showing the results, are also similar to the above “Measurement of Cell Viability”. […]

[10] = tested on: AQP-1; assay: AQP-1 mRNA level under oxidative stress (qRT-PCR); type: cell-based, human
Experimental: as §7
(§8) According to the procedure described in “Measurement of Cell Viability” above, normal human dermal fibroblasts were treated and cultured (co-culture), and cells or the culture solution was recovered. The notation of the sample in FIGS. 8 and 9, which are graphs showing the results, is also the same as in the “Measurement of Cell Viability” described above.
(§9) The measurement of aquaporin was performed for AQP-1 and AQP-3 by a qRT-PCR method, and the measurement result was obtained by a ΔΔCt method. […] The qRT-PCR method is s specifically described in “qRT-PCR method” described later.
as §5
(§10) As a PCR device, Thermal Cycler Dice Real Time System II manufactured by Takara was used. As one reaction system, 10 μL of Luna Universal One-Step Reaction Mix (2×), 1 μL of Luna WarmStart RT Enzyme Mix (20×), 0.8 μL of Forward primer (10 μM), 0.8 μL of Reverse primer, and Total RNA as a template for the PCR were used, and the total amount was adjusted to 20 μL in Nuclease-free Water.
as §6

[11] = tested on: AQP-3; assay: AQP-3 mRNA level under oxidative stress (qRT-PCR); type: cell-based, human
Experimental: as §7, §8, §9, §5, §10, §6

[12] = tested on: hyaluronic acid; assay: Hyaluronic acid secreted into culture supernatant (ELISA); type: cell-based, human
Experimental: as §7
(§11) According to the procedure described in “Measurement of Cell Viability” above, normal human dermal fibroblasts were treated and cultured (co-culture), and cells or the culture solution was recovered. The concentrations of VB2 and VB3 used and the notation of the samples in FIGS. 10 and 11, which are graphs showing the results, are also similar to the above “Measurement of Cell Viability”.
(§12) The production amounts of hyaluronic acid and Elastin were measured by an ELISA method. The results of measuring the amount of hyaluronic acid secreted from normal human dermal fibroblasts into the culture supernatant by the ELISA method are shown in FIG. 10, and the results of measuring the amount of intracellular Elastin production by the ELISA method are shown in FIG. 11.

[13] = tested on: Elastin; assay: Intracellular Elastin production (ELISA); type: cell-based, human
Experimental: as §7, §11, §12

[14] = added before or after 0.2 mM hydrogen peroxide
[15] = added in advance before oxidative stress, compared with addition after
[16] = added in advance before applying oxidative stress

mRNA expression of AGE receptor [1]: did not affect
Substance: K11H[(VO)3(SbW9O33)2] [VB2]
mRNA level of FEEL-1 [2]: significantly increased
mRNA level of FEEL-2 [3]: significantly increased
mRNA level of RAGE [4]: significantly increased
mRNA expression of Hsp ([5]; VB alone, no AGE, compared with untreated group): did not affect
mRNA levels of all Hsps other Hsp 90 among the examined Hsps ([5]; co-existence with AGE 100 μg/mL, compared with AGE single stimulation group): significantly increased
intracellular ROS under AGE stimulation [6]: suppress the increase in ROS
maximum cell viability ([7]; added after 0.2 mM hydrogen peroxide, 300 μg/mL, % of Control (H2O2 only 59%)): 76%
cell viability, trend ([7]; added after 0.2 mM hydrogen peroxide): increased in a concentration-dependent manner
cell viability, trend ([7]; added in advance before 0.2 mM hydrogen peroxide): significant increase in a concentration-dependent manner
ROS production ([8]; added before and after 0.2 mM hydrogen peroxide, 1-300 μg/mL): suppressed in a concentration-dependent manner
ROS production ([8]; treatment in advance before oxidative stress, compared with addition after): further suppressed
SOD amount [9]: tended to be recovered in a concentration-dependent manner
mRNA level of AQP-1 [10, 14]: increased
AQP-1 mRNA repair ability, addition before vs after oxidative stress [10, 15]: tended to have a stronger repair ability
mRNA level of AQP-3 [11, 14]: increased
AQP-3 mRNA repair ability, addition before vs after oxidative stress [11, 15]: tended to have a stronger repair ability
amount of hyaluronic acid ([12]; 0.2 mM hydrogen peroxide oxidative stress, culture supernatant): tended to be recovered
hyaluronic acid repair ability, addition before vs after oxidative stress [12, 15]: tended to have a stronger repair ability
Elastin production amount ([13]; added after application of oxidative stress (H2O2 only 56% of Control)): could not be recovered
Elastin production amount [13, 16]: significant recovery
concentration at which Elastin production amount was significantly higher than Control [13, 16]: ≥ 100 µg/mL
